These results are taken from paper PMC11188199, “Development and validation of a generic methyltransferase enzymatic assay based on an SAH riboswitch” (SLAS discovery : advancing life sciences R & D, 2024).

In data set [1] the target is PRMT5. Also noted: method as in PMID 34583982. To be noted: RapidFire MS SAH detection; read-out: kiApp; cited from earlier work.
Another data set relates to METTL3/METTL14. To be noted: cited from earlier work.
Another data set has as its target Dar-1 split aptamer. Kind of data set: Split aptamer SAH assay with TR-FRET readout (AptaFluor), equilibrium binding. Set-up: species or system D. aromatica. To be noted: for pEC50: n = 3, plates read at 3 hr. (Time-resolved FRET reads energy transfer from a long-lived donor to a nearby acceptor.)
Data set [2] concerns split Dar-1 riboswitch (Dar1 P1/P2). Kind of data set: Split aptamer SAH assay with FP readout. Format: binding, D. aromatica. An excerpt: Based on a literature review and preliminary testing, an SAH riboswitch from D. aromatica (Dar-1) was chosen for development of a split aptamer-based assay. […] We tested these configurations with a far red fluor on the shorter P2 element, allowing FP-based detection (Fig. 1A). […] Generally, a shift of at least 100 mP @ ≤ 10 % substrate conversion is desirable for HTS. It is likely that the FP signal is limited by the relatively modest difference in size between the free P2 RNA and the liganded P1–P2 complex. In this regard, attachment of one half of a split DNA aptamer to a silver nanoparticle produced a lactoferrin sensor with a signal greater than 100 mP [32]; to our knowledge, this is the only other example of a split aptamer-based assay with an FP readout. Attempts to use a similar approach by attaching Streptavidin to the P1 oligomer were not successful (data not shown).
Fig. 1. Split aptamer SAH assay with FP readout. A. SAH dependent assembly of split aptamer (Dar1 P1/P2) causes increase in polarization of a fluor attached to the P2 element. B. SAH titration, showing concentration dependence and stability of signal. C. Comparison of response to SAH, SAM and ATP. D. Standard curve mimicking enzymatic conversion of 200 nM SAM to SAH. E. Titration of PRMT3 in the presence of 500 nM SAM and Histone H4 peptide substrate. […]

Another data set has as its target SAH riboswitches. Also noted: method as in PMID 18374645. Particulars: native SAH riboswitch; cited from earlier work.
Data set [3] deals with C[S+](CC[C@H](N)C(=O)[O-])C[C@H]1O[C@@H](n2cnc3c(N)ncnc32)[C@H](O)[C@@H]1O. Nature of the data set: purified protein, by the assay type. To be noted: other: data not shown.
The target of data set [4] is T1, nsp14 (Severe acute respiratory syndrome coronavirus 2, UniProt P0DTD1).
Data set [5] relates to PRMT5. Set-up: method as in PMID 25915199. To be noted: read-out: IC50 (published value); cited from earlier work.
The target in data set [6] is T1, nsp14. To be noted: read-out: SAM Km; cited from earlier work.

pEC50, pIC50, pKd, pKi: −log10 of the molar value.

As for `Nc1nc2cc(CC[C@H]3C[C@@H](n4ccc5c(N)ncnc54)[C@H](O)[C@@H]3O)ccc2cc1Br` [JNJ64619178], on PRMT5 [1], the pKi is 9.11.
The term pIC50 denotes the IC50 on a negative log10 scale, so that one unit is a factor of ten. As for `CNc1cc(N2CCC3(CC2)CN(c2cc(F)c(CN4CCC(C)(C)CC4)cc2F)CC(=O)N3)ncn1` [UZH2, reference compound], the pIC50 in the data set on METTL3/METTL14 (read-out: IC50 (published value)) was 8.30.
Broadly, the pEC50 is the EC50 on a negative log10 scale, so that one unit is a factor of ten. In turn, `Nc1ncnc2c1ncn2[C@@H]1O[C@H](CO)[C@@H](O)[C@H]1O` [adenosine] had a pEC50 on Dar-1 split aptamer of 3.97.
As usually defined, the pKd is −log10 of the Kd, conventionally taken in molar units. As to `Nc1ncnc2c1ncn2[C@@H]1O[C@H](CSCC[C@H](N)C(=O)O)[C@@H](O)[C@H]1O` [SAH, S-adenosylhomocysteine], in [2], the “selectivity vs. SAM” value was “greater than 200 fold”. In addition, the pKd in data set [2] (split aptamer construct) is 7.66; at SAH riboswitches, 7.70. For the same molecule, the “observed selectivity (SAH vs SAM)” value in the data set on Dar-1 split aptamer (highly purified preparation of SAM) was “more than 1000 fold”. Further, the pEC50 on Dar-1 split aptamer was 7.70.
As a reminder, the Km is the concentration of substrate that gives half-maximal velocity. Regarding “nsp14 (Severe acute respiratory syndrome coronavirus 2)”, in data set [3], the Km worked out at 60 nM.
`O=C1C(Cl)=C(NCCN2CCOCC2)C(=O)c2ncccc21` [NSC-663284]: at nsp14 [4], the “inhibition of nsp14 enzymatic activity in dose response mode” value is reported as “dose-dependent response”.
On to `CC1(C)C(=O)N=C2C1=C(O)C(=O)c1ccccc12` [BVT-948], for which the “inhibition of nsp14 enzymatic activity in dose response mode” value against nsp14 [4] is recorded as “dose-dependent response”.
Take `O=C(NC[C@H](O)CN1CCc2ccccc2C1)c1ccnc(NC2CCC2)c1` [GSK591]: the pIC50 with PRMT5 [5] was 7.66.
As for `C[S+](CC[C@H](N)C(=O)[O-])C[C@H]1O[C@@H](n2cnc3c(N)ncnc32)[C@H](O)[C@@H]1O` (stereo partly shown) [SAM, S-adenosylmethionine], the pEC50 on Dar-1 split aptamer was 4.64. In addition, the “affinity fold lower than for SAH” value in the data set with SAH riboswitches is “at least 1000 fold”. Besides, the Km in the data set with METTL3/METTL14 (ssRNA substrate similar to the 28mer, read-out: SAM Km) is approximately 200 nM; at nsp14 [6] it was 257 nM.
